# Test system: NL4-3 infected resting CD4+ T cells
# Experiment: Intracellular HIV Gag staining (flow cytometry) of resting CD4+ T cells directly infected with NL4-3, day 3 post-infection
# Assay type: cell-based
# Conditions: resting CD4+ T cells infected with NL4-3 by spinoculation, cultured in the presence of the compound, three days postinfection
# Procedure: Quiescent CD4+ T cells in the G0/1a stage of the life cycle were enriched by depletion of lineage and activation markers (39, 40). Cells were infected with NL4-3 by spinoculation (32) and cultured in the absence of activating cytokines and in the presence of the protease inhibitor saquinavir (17, 39). dNs were added to infected cultures to overcome SAMHD1− mediated restriction that has been described in resting T cells (33, 41, 42). Three days postinfection cells were stained with LIVE/DEAD aqua and stained for surface markers with antibodies against CD3 (AF700), CD4 (PECy5.5), and CD25/CD69/HLA-DR (APC). Cells were then fixed, permeabilized and stained for HIV Gag. […] Consistent with our previous work, the cultured Gag+ cells lacked the activation markers CD25, CD69 and HLA-DR at day 3. […] The level of integrated HIV DNA was determined to be 0.32 copies per cell in the bulk culture (termed whole culture, WC). Gag+CD4− cells contained 1.2 HIV proviruses per cell, which represented an enrichment of integrated HIV DNA in Gag+CD4− cells compared to Gag− cell populations (Gag−CD4− cells contained 0.013 copies, Gag−CD4int cells contained 0.11 copies, and Gag− CD4+ cells contained 0.24 copies of integrated HIV DNA per cell).
smiles,measurement,value
Cc1nnc(C(=O)NC(C)(C)c2nc(C(=O)NCc3ccc(F)cc3)c(O)c(=O)n2C)o1 [raltegravir],Gag staining of infected cells,very low Gag staining
